Assay results: patent publication US8846655B2, “4-substituted-2-phenoxy-phenylamine delta opioid receptor modulators” (Janssen Pharmaceutica, NV, priority 2009, dated 2014)

Key:
mu opioid receptor = biological target: T1, mu opioid receptor (Rattus norvegicus, UniProt P33535); experiment: Rat brain mu opioid receptor binding assay; conditions: rat forebrain membranes, ~0.8 nM [3H]DAMGO; read-out: μ-binding Ki
T1 construct: the forebrains were homogenized in Tris buffer in a Teflon®-glass homogenizer; from tissue; host or cells: rat forebrain membrane homogenate (male Wistar rats)
T1 sequence (P33535 whole entry): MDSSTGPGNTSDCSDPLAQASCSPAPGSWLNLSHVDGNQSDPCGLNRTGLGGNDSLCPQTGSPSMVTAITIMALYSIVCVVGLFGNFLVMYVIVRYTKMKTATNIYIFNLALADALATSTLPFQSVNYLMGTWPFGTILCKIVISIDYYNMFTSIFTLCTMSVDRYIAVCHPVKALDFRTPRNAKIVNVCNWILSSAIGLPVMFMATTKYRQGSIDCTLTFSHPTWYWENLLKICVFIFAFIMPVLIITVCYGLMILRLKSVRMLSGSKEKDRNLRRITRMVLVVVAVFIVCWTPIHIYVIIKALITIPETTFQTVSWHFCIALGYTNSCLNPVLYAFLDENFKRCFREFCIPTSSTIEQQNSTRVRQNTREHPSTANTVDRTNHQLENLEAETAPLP
Method: Procedure: Male, Wistar rats (150-250 g, VAF, Charles River, Kingston, N.Y.) were killed by CO2, and their brains were removed and placed immediately in ice cold Tris HCl buffer (50 mM, pH 7.4). The forebrains were separated from the remainder of the brain by a coronal transection, beginning dorsally at the colliculi and passing ventrally through the midbrain-pontine junction. After dissection, the forebrains were homogenized in Tris buffer in a Teflon®-glass homogenizer. The homogenate was diluted to a concentration of 1 g of forebrain tissue per 80 mL Tris and centrifuged at 39,000×g for 10 min. The pellet was resuspended in the same volume of Tris buffer containing 5 mM MgCl2 with several brief pulses from a Polytron homogenizer. This particulate preparation was used for the mu opioid binding assays.

δ-opioid receptor = biological target: T2, δ-opioid receptor (Mus musculus, UniProt P32300); experiment: [35S]GTPγS δ-opioid receptor functional assay (EC50, relative efficacy, % inhibition); assay type: biochemical
T2 construct: NG108-15 cell membranes were purchased from Applied Cell Sciences (Rockville, Md.)
T2 sequence (P32300 whole entry): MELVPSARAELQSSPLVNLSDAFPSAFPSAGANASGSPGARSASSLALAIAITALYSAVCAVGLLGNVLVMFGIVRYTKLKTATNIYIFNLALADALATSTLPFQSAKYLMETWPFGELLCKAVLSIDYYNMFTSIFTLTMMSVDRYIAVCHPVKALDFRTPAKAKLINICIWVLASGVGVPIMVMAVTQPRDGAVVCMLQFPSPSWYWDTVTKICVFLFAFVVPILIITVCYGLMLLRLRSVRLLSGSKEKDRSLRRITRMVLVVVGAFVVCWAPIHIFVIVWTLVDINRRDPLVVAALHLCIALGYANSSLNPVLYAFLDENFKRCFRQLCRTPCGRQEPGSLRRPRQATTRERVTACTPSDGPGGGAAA
Method: Incubation procedure: The pellet membranes (75 μg/mL) were preincubated with SPA (10 mg/mL) at 25° C. for 45 min in the assay buffer. […] GTPγS in the same Tris buffer containing 100 μM GDP in total volume of 200 pt. 200 nM of receptor agonists was used to stimulate [^35S]-GTPγS binding. The basal binding was tested in the absence of agonists and non-specific binding was tested in the presence of 10 μM unlabeled GTPγS.
Compounds were tested for function as antagonists by evaluating their potential to inhibit agonist-stimulated GTPγS binding. Radioactivity was quantified on a Packard TopCount.

delta opioid receptor [1] = biological target: T3, delta opioid receptor (Mus musculus, UniProt P32300); experiment: [35S]GTPγS binding assay in NG108-15 cell membranes (delta opioid functional assay), 200 nM screen; assay type: biochemical; conditions: 200 nM compound; relative to calculated max of SNC80 dose response
T3 construct: NG108-15 cell membranes were purchased from Applied Cell Sciences (Rockville, Md.); host or cells: NG108-15 cell membranes (purchased)
T3 sequence (P32300 whole entry): as above
Method: Methods: NG108-15 cell membranes were purchased from Applied Cell Sciences (Rockville, Md.). 5 mg/mL of membrane protein suspended in 10 mM TRIS-HCl pH 7.2, 2 mM EDTA, 10% sucrose. Membranes were maintained at 4-8° C. A 1 mL volume of membranes was added into 10 mL cold binding assay buffer. The assay buffer contained 50 mM Tris, pH 7.6, 5 mM MgCl2, 100 mM NaCl, 1 mM DTT and 1 mM EGTA. The membrane suspension was homogenized twice with a Polytron, and centrifuged at 3000 rpm for 10 min. The supernatant was then centrifuged at 18,000 rpm for 20 min. Ten mL assay buffer was added into the pellet containing tube. The pellet and buffer were mixed with a Polytron.
Incubation procedure: The pellet membranes (75 μg/mL) were preincubated with SPA (10 mg/mL) at 25° C. for 45 min in the assay buffer. The SPA (5 mg/mL) coupled with membranes (37.5 μg/mL) was then incubated with 0.1 nM [^35S] GTPγS in the same Tris buffer containing 100 μM GDP in total volume of […]. 200 nM of receptor agonists was used to stimulate [^35S]-GTPγS binding. The basal binding was tested in the absence of agonists and non-specific binding was tested in the presence of 10 μM unlabeled GTPγS.
Data % of Basal=(stimulated−non specific)*100/(basal−non specific). Relative Efficacy of a compound at 200 nM=(% of Basal of test compound at 200 nM)/(Calculated Max of SNC80 dose response. Curve in prism).

delta opioid receptor [2] = biological target: T4, delta opioid receptor (Rattus norvegicus, UniProt P33533); experiment: Rat brain delta opioid receptor binding assay; conditions: rat forebrain membranes, 0.25 nM [3H]naltrindole; read-out: δ-binding (Naltrindole ligand) Ki
T4 construct: the forebrains were homogenized in Tris buffer in a Teflon®-glass homogenizer; from tissue; host or cells: rat forebrain membrane homogenate (male Wistar rats)
T4 sequence (P33533 whole entry): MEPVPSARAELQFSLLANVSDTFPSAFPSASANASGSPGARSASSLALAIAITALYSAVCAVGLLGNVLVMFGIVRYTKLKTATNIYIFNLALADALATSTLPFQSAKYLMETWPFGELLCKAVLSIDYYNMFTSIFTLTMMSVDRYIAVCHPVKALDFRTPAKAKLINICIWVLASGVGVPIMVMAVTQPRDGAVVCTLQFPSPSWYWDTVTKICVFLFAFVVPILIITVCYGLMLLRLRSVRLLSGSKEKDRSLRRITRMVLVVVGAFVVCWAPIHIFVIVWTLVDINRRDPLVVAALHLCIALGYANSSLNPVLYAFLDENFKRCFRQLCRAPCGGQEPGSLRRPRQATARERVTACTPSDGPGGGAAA
Method: Procedure: Male, Wistar rats (150-250 g, VAF, Charles River, Kingston, N.Y.) were killed by CO2, and their brains were removed and placed immediately in ice cold Tris HCl buffer (50 mM, pH 7.4). The forebrains were separated from the remainder of the brain by a coronal transection, beginning dorsally at the colliculi and passing ventrally through the midbrain-pontine junction. After dissection, the forebrains were homogenized in Tris buffer in a Teflon®-glass homogenizer. The homogenate was diluted to a concentration of 1 g of forebrain tissue per 80 mL Tris and centrifuged at 39,000×g for 10 min. The pellet was resuspended in the same volume of Tris buffer containing 5 mM MgCl2 with several brief pulses from a Polytron homogenizer. […] To each sample area 2×50 μL of Betaplate Scint scintillation fluid (LKB) was added and the radioactivity was quantified on a LKB (Wallac) 1205 BetaPlate liquid scintillation counter.
Analysis: The data from the scintillation counter were used to calculate either the % inhibition compared to control binding (when only a single concentration of test compound was evaluated) or a K1 value (when a range of concentrations was tested). Percent inhibition was calculated as: [(total dpm-test compound dpm)/(total dpm-nonspecific dpm)]*100. Kd and Ki values were calculated using GraphPad PRISM data analysis program.

mice = experiment: Mouse Graded Abdominal Irritant Test (GrAIT); assay type: in vivo; conditions: 10% Solutol, 30 min pretreatment
Method: Test compound or vehicle was administered s.c. or p.o. to mice. Following the pretreatment time, an i.p. injection of 0.6% of acetic acid in 0.5 mL was administered. Five min after acetic acid administration, mice were placed into clear chambers and were continuously observed for 5 min. Behavioral responses including twisting and elongation of the body that extended through the hindlimbs were counted and averaged for the group of animals over the observation period.

SMILES	Ki (mu opioid receptor) [µM]	GTγPS δ-opioid receptor Rel Efficacy (δ-opioid receptor)	further results
CNCCNc1ccc(Oc2ccc(OC)cc2)cc1Oc1ccc(OC)cc1 [Cpd 63, N-[2,4-Bis-(4-methoxy-phenoxy)-phenyl]-N′-methyl-ethane-1,2-diamine]	> 10		
COc1ccc(Oc2ccc(NC[C@@H](N)CO)c(Oc3ccc(OC)cc3)c2)cc1 [Cpd 55]	> 10		
COc1ccc(Oc2cc(-c3cncc(C#N)c3)ccc2NC[C@@H]2CCCN2)cc1 [Cpd 44]		1.1554	GTPγS δ-RelEfficacy @200 nM (delta opioid receptor [1]): 0.45
COc1ccc(Oc2cc(-c3cncc(OC)c3)ccc2NC[C@@H]2C[C@@H](F)CN2)cc1 [Cpd 27]	> 10		
c1ccc(Oc2cc(-c3ccccc3)ccc2NC[C@@H]2CCCN2)cc1 [Cpd 14]	> 10		
COc1ccc(Oc2cc(CCc3ccc(F)cc3)ccc2NC[C@@H]2CCCN2)cc1 [Cpd 6]	> 10		
Fc1ccc(Oc2cc(-c3ccccc3)ccc2NC[C@@H]2CCCN2)cc1 [Cpd 16]	> 10		
COc1ccc(Oc2cc(-c3cncnc3)ccc2NC[C@@H]2CCCN2)cc1 [Cpd 42]			GTPγS δ-RelEfficacy @200 nM (delta opioid receptor [1]): 0.39
COc1ccc(Oc2cc(-c3cccc4ccccc34)ccc2NC[C@@H]2CCCN2)cc1 [Cpd 37]	> 10		
O=C(O)c1cccc(Oc2cc(-c3ccccc3)ccc2NC[C@@H]2CCCN2)c1 [Cpd 32]	> 10		
COc1ccc(Oc2cc(CCc3cccc(F)c3)ccc2NC[C@@H]2CCCN2)cc1 [Cpd 7]	> 10		
Clc1ccc(Oc2cc(-c3ccccc3)ccc2NC[C@@H]2CCCN2)c(Cl)c1 [Cpd 22]	> 10		
Clc1cccc(Cl)c1Oc1cc(-c2ccccc2)ccc1NC[C@@H]1CCCN1 [Cpd 18]	> 10	0.763	
NC(=O)c1cccc(Oc2cc(-c3ccccc3)ccc2NC[C@@H]2CCCN2)c1 [Cpd 30]		0.2668	
COc1ccc(Oc2cc(-c3cccnc3)ccc2NC[C@@H]2CCCN2)cc1 [Cpd 39]		0.9245	
COc1ccc(Oc2cc(-c3ccncc3)ccc2NC[C@@H]2CCCN2)cc1 [Cpd 38]	4.36	0.8323	EC50 (δ-opioid receptor): 0.478 µM; inhibition at 10 µM (δ-opioid receptor; read-out: GTPγS δ-opioid receptor % Inh @10 μM): 16.4%; Ki (delta opioid receptor [2]): 0.0155 µM
COc1ccc(Oc2cc(-c3cncc(SC)c3)ccc2NC[C@@H]2C[C@@H](F)CN2)cc1 [Cpd 26]		1.0716	GTPγS δ-RelEfficacy @200 nM (delta opioid receptor [1]): 0.7
COc1ccc(Oc2cc(-c3cncc(F)c3)ccc2NC[C@@H]2C[C@@H](F)CN2)cc1 [Cpd 25]		1.0217	GTPγS δ-RelEfficacy @200 nM (delta opioid receptor [1]): 0.78
CCN(CC)C(=O)CCc1ccc(NC[C@@H]2CCCN2)c(Oc2ccc(OC)cc2)c1 [Cpd 2, N,N-Diethyl-3-[3-(4-methoxyphenoxy)-4-{[(2S)-pyrrolidin-2-ylmethyl]amino}phenyl]propanamide]		0.8333	

SMILES	Ki (mu opioid receptor) [µM]	GTγPS δ-opioid receptor Rel Efficacy (δ-opioid receptor)	further results
N#Cc1cccc(Oc2cc(-c3ccccc3)ccc2NC[C@@H]2CCCN2)c1 [Cpd 13]	> 10		
COc1ccc(Oc2cc(-c3ccoc3)ccc2NC[C@@H]2CCCN2)cc1 [Cpd 40]	> 10		
COc1ccc(Oc2cc(-c3cncc(C)c3)ccc2NC[C@@H]2C[C@@H](F)CN2)cc1 [Cpd 28]		0.8756	
COc1ccc(Oc2cc(-c3ccsc3)ccc2NC[C@@H]2CCCN2)cc1 [Cpd 41]	> 10		
COc1ccc(Oc2cc(-c3cncc(C#N)c3)ccc2NC[C@@H]2C[C@@H](F)CN2)cc1 [Cpd 24, (2S,4R)-5-[4-[(4-Fluoro-pyrrolidin-2-ylmethyl)-amino]-3-(4-methoxy-phenoxy)-phenyl]-nicotinonitrile]		1.0158	GTPγS δ-RelEfficacy @200 nM (delta opioid receptor [1]): 1.01
CCN(CC)C(=O)/C=C/c1ccc(NC[C@@H]2CCCN2)c(Oc2ccc(OC)cc2)c1 [Cpd 1, (2E)-N,N-Diethyl-3-[3-(4-methoxyphenoxy)-4-{[(2S)-pyrrolidin-2-ylmethyl]amino}phenyl]prop-2-enamide]		0.8328	# abdominal stretches (cpd) (mice; 30 mg/kg s.c.): 10.9
Oc1ccc(Oc2cc(-c3cccnc3)ccc2NC[C@@H]2CCCN2)cc1 [Cpd 45, (S)-4-{5-Pyridin-3-yl-2-[(pyrrolidin-2-ylmethyl)-amino]-phenoxy}-phenol]		0.627	
COC(=O)c1cccc(Oc2cc(-c3ccccc3)ccc2NC[C@@H]2CCCN2)c1 [Cpd 21]	> 10		
CCN(CC)C(=O)c1ccc(NC[C@@H]2CCCN2)c(Oc2ccc(OC)cc2)c1 [Cpd 10]			# abdominal stretches (cpd) (mice; 30 mg/kg p.o.): 19; # abdominal stretches (cpd) (mice; 30 mg/kg s.c.): 11; # abdominal stretches (cpd) (mice; 100 mg/kg p.o.): 17.9; # abdominal stretches (cpd) (mice; 300 mg/kg p.o.): 21.2
COC(=O)c1ccc(Oc2cc(-c3ccccc3)ccc2NC[C@@H]2CCCN2)cc1 [Cpd 20]	> 10		
FC(F)(F)Oc1ccc(Oc2cc(-c3ccccc3)ccc2NC[C@@H]2CCCN2)cc1 [Cpd 17]	> 10		
CCN(CC)C(=O)c1cccc(Oc2cc(-c3ccccc3)ccc2NC[C@@H]2CCCN2)c1 [Cpd 34]	> 10		
COc1cccc(Oc2cc(-c3ccccc3)ccc2NC[C@@H]2CCCN2)c1 [Cpd 15]	> 10		
COc1ccc(Oc2cc(-c3ccccc3)ccc2NC[C@@H]2CCCN2)cc1 [Cpd 35, (S)-[3-(4-Methoxy-phenoxy)-biphenyl-4-yl]-pyrrolidin-2-ylmethyl-amine]	> 10		
CCN(CC)C(=O)c1ccc(NC[C@@H]2CCCN2)c(Oc2ccccc2OC)c1 [Cpd 11]	> 10		
COc1ccc(Oc2cc(-c3cncc(F)c3)ccc2NC[C@@H]2CCCN2)cc1 [Cpd 43]		1.0908	GTPγS δ-RelEfficacy @200 nM (delta opioid receptor [1]): 0.43
COc1ccc(Oc2cc(-c3ccccc3)ccc2N2CCNCC2)cc1 [Cpd 46, 1-[3-(4-Methoxy-phenoxy)biphenyl-4-yl]piperazine]	> 10		
COc1ccc(Oc2cc(CCc3ccccc3)ccc2NC[C@@H]2CCCN2)cc1 [Cpd 5]	> 10		
COc1ccc(Oc2cc(CCc3cccc(OC)c3)ccc2NC[C@@H]2CCCN2)cc1 [Cpd 4]	> 10		
